Experimental data taken from US7608622B2, “Imidazo[4,5-b]pyrazinone inhibitors of protein kinases” (Janssen Pharmaceutica NV, priority 2004, dated 2009).

Target: T1, Aurora-2 (Homo sapiens, UniProt O14965)
T1 construct: autophosphorylation of Aurora-2 (residues 125-391)
T1 sequence (O14965 125-391): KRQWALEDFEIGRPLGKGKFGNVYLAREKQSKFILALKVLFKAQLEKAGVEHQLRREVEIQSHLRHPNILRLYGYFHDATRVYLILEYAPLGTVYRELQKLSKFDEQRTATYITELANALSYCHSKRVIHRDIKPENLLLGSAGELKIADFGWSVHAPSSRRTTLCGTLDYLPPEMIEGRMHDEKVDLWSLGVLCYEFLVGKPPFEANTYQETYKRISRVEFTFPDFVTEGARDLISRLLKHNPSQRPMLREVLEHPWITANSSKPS
Test: Aurora-2 Enzymatic Assay (ELISA-based)
Assay type: biochemical
Details: phosphorylated Aurora-2 (residues 125-391), Histone H3 Ser-10 phosphorylation, averages of three independent measurements; read-out: Aurora-2 IC50 Enzyme
Description: In vitro assays were run to measure potency of Aurora-2 kinase inhibition by selected compounds of Formula I.
Aurora-2 Enzymatic Assay. An ELISA-based enzymatic assay was used to determine the compound potency for Aurora-2. In this assay, phosphorylated Aurora-2 (Pi-Aurora-2) catalyzes the ATP-dependent phosphorylation of Ser-10 of Histone H3. Pi-Aurora-2 was produced by autophosphorylation of Aurora-2 (residues 125-391) by 1 mM ATP in the presence of 10 mM MgCl2. The assay buffer used was 100 mM HEPES, pH 7.5, 1 mM DTT, 0.01% (v/v) Tween-20. Compounds were diluted in assay buffer containing 4% DMSO just prior to the assay. • Procedure. High-binding 96-well ELISA plates (Costar 9018) were coated overnight at 4° C. with 10 μg/ml human Histone H3 (Upstate) in PBS (100 μl/well). The following day, the plates were emptied and blocked with 1% BSA in PBS (150 μl/well) for 1 h at 37° C. At the end of the incubation, plates were washed 3 times with 0.01% Tween-20 in PBS (300 μl/well). 50 μl of compound were dispensed to each well followed by addition of 20 μl 10 mM MgCl2 and 20 μl 50 μM ATP (Sigma). The reaction was initiated by addition of 10 μl 30 nM Pi-Aurora-2. […] The reaction was quenched with 9 μl 50 mM EDTA and the plates were washed 5 times with 0.01% Tween-20 in PBS (300 μl/well). The phospho-histone H3 (Ser10) 6G3 monoclonal antibody (Cell Signaling) was then diluted 2,000-fold with 1% BSA in PBS, and was added to the plates (100 μl/well). Following 1 h incubation at 37° C., the plates were washed as described above. The HRP-conjugated secondary antibody (goat anti-mouse Ig(H+ L)-HRP human absorbed, Southern Biotechnology Associates, Inc.) was diluted 20,000-fold with 1% BSA in PBS and was added to the plates (100 μl/well). The plates were incubated for 1 h at 37° C. and then washed 5 times with 0.01% Tween-20 in PBS (300 μl/well). 100 μl/well TMB, SureBlue Reserve (KPL) were added. After ca. 5-6 min, each well received 100 μl 1 M HCl and the OD450 was measured with a SpectraMax Plus microplate reader (Molecular Devices). Under these conditions, absorbance values for positive and negative controls were ca. 0.1 and 1.7, respectively, and were used to define the 100% and 0% inhibition of the Aurora-2 reaction. The IC50 values reported (Table 1) are the averages of three independent measurements.

SMILES	IC50 [µM]
COc1cc(-c2cnc3[nH]c(=O)n([C@@H](C)c4ccccc4)c3n2)cc(OC)c1OC [Compound 1, 1-((S)-(−)-1-Phenylethyl)-6-(3,4,5-trimethoxyphenyl)-1,3-dihydroimidazo[4,5-b]pyrazin-2-one]	< 0.5
COc1cc(-c2cnc3[nH]c(=O)n([C@H](C)c4ccccc4)c3n2)cc(OC)c1OC [Compound 2, 1-((R)-(+)-1-Phenylethyl)-6-(3,4,5-trimethoxyphenyl)-1,3-dihydro-imidazo[4,5-b]pyrazin-2-one]	> 1
COc1cc(-c2cnc3[nH]c(=O)n(Cc4ccccc4)c3n2)cc(OC)c1OC [Compound 3, 1-Benzyl-6-(3-4,5-trimethoxyphenyl)-1,3-dihydroimidazo[4,5-b]pyrazin-2-one]	< 0.5
C[C@@H](c1ccccc1)n1c(=O)[nH]c2ncc(-c3ccc4[nH]ccc4c3)nc21 [Compound 4, 6-(1H-Indol-5-yl)-1-((S)-(−)-1-phenylethyl)-1,3-dihydroimidazo[4,5-b]pyrazin-2-one]	> 1
Cc1noc(C)c1-c1cnc2[nH]c(=O)n([C@@H](C)c3ccccc3)c2n1 [Compound 5, 6-(3,5-Dimethylisoxazol-4-yl)-1-((S)-(−)-1-phenylethyl)-1,3-dihydro-imidazo[4,5-b]pyrazin-2-one]	> 1
C[C@@H](c1ccccc1)n1c(=O)[nH]c2ncc(-c3cccc(C#N)c3)nc21 [Compound 6, 3-[2-Oxo-3-((S)-(−)-1-phenylethyl)-2,3-dihydro-1H-imidazo[4,5-b]pyrazin-5-yl]benzonitrile]	> 1
C[C@@H](c1ccccc1)n1c(=O)[nH]c2ncc(-c3cccc(CO)c3)nc21 [Compound 7, 6-(3-Hydroxymethylphenyl)-1-((S)-(−)-1-phenylethyl)-1,3-dihydro-imidazo[4,5-b]pyrazin-2-one]	0.5 to 1
C[C@@H](c1ccccc1)n1c(=O)[nH]c2ncc(-c3cc4ccccc4[nH]3)nc21 [Compound 8, 6-(1H-Indol-2-yl)-1-((S)-(−)-1-phenylethyl)-1,3-dihydro-imidazo[4,5-b]pyrazin-2-one]	> 1
O=c1[nH]c2ncc(-c3cccs3)nc2n1Cc1ccccc1 [Compound 16, 1-Benzyl-6-thiophen-2-yl-1,3-dihydroimidazo[4,5-b]pyrazin-2-one]	> 1
COc1cc(-c2cnc3[nH]c(=O)n(Cc4ccccn4)c3n2)cc(OC)c1OC [Compound 19, 1-Pyridin-2-ylmethyl-6-(3,4,5-trimethoxyphenyl)-1,3-dihydroimidazo[4,5-b]pyrazin-2-one]	0.5 to 1
COc1cc(-c2cnc3[nH]c(=O)n(Cc4cccnc4)c3n2)cc(OC)c1OC [Compound 20, 1-Pyridin-3-yl methyl-6-(3,4,5-trimethoxyphenyl)-1,3-dihydroimidazo-[4,5-b]pyrazin-2-one]	< 0.5
COc1cc(-c2cnc3[nH]c(=O)n(Cc4cccc([N+](=O)[O-])c4)c3n2)cc(OC)c1OC [Compound 27, 1-(3-Nitrobenzyl)-6-(3,4,5-trimethoxyphenyl)-1,3-dihydroimidazo[4,5-b]pyrazin-2-one]	> 1
COc1cc(-c2cnc3[nH]c(=O)n(Cc4ccc(Cl)cc4)c3n2)cc(OC)c1OC [Compound 28, 1-(4-Chlorobenzyl)-6-(3,4,5-trimethoxyphenyl)-1,3-dihydro-imidazo[4,5-b]pyrazin-2-one]	0.5 to 1
COc1cc(-c2cnc3[nH]c(=O)n(Cc4cccc(Cl)c4)c3n2)cc(OC)c1OC [Compound 29, 1-(3-Chlorobenzyl)-6-(3,4,5-trimethoxyphenyl)-1,3-dihydro-imidazo[4,5-b]pyrazin-2-one]	< 0.5
COc1cc(-c2cnc3[nH]c(=O)n(Cc4cccc(C)c4)c3n2)cc(OC)c1OC [Compound 30, 1-(3-Methylbenzyl)-6-(3,4,5-trimethoxyphenyl)-1,3-dihydro-imidazo[4,5-b]pyrazin-2-one]	0.5 to 1
COc1cc(-c2cnc3[nH]c(=O)n(Cc4cccc(F)c4)c3n2)cc(OC)c1OC [Compound 31, 1-(3-Fluorobenzyl)-6-(3,4,5-trimethoxyphenyl)-10,3-dihydro-imidazo[4,5-b]pyrazin-2-one]	< 0.5
COc1cccc(Cn2c(=O)[nH]c3ncc(-c4cc(OC)c(OC)c(OC)c4)nc32)c1 [Compound 32, 1-(3-Methoxybenzyl)-6-(3,4,5-trimethoxyphenyl)-1,3-dihydro-imidazo[4,5-b]pyrazin-2-one]	0.5 to 1

Continued, values first:

IC50 [µM]	SMILES
> 1	O=c1[nH]c2ncc(-c3cccnc3)nc2n1Cc1ccccc1 [Compound 9, 1-Benzyl-6-pyridin-3-yl-1,3-dihydroimidazo[4,5-b]pyrazin-2-one]
0.5 to 1	COc1ccc(-c2cnc3[nH]c(=O)n(Cc4ccccc4)c3n2)cc1OC [Compound 10, 1-Benzyl-6-(3,4-dimethoxyphenyl)-1,3-dihydroimidazo[4,5-b]pyrazin-2-one]
> 1	COc1ccc(-c2cnc3[nH]c(=O)n(Cc4ccccc4)c3n2)cn1 [Compound 11, 1-Benzyl-6-(6-methoxypyridin-3-yl)-1,3-dihydroimidazo[4,5-b]pyrazin-2-one]
> 1	COCc1cccc(-c2cnc3[nH]c(=O)n(Cc4ccccc4)c3n2)c1 [Compound 12, 1-Benzyl-6-(3-methoxymethylphenyl)-1,3-dihydroimidazo[4,5-b]pyrazin-2-one]
> 1	CC(=O)c1cccc(-c2cnc3[nH]c(=O)n(Cc4ccccc4)c3n2)c1 [Compound 13, 6-(3-Acetylphenyl)-1-benzyl-1,3-dihydroimidazo[4,5-b]pyrazin-2-one]
> 1	COc1ccc(-c2cnc3[nH]c(=O)n(Cc4ccccc4)c3n2)c(OC)c1 [Compound 14, 1-Benzyl-6-(2,4-dimethoxyphenyl)-1,3-dihydroimidazo[4,5-b]pyrazin-2-one]
> 1	O=c1[nH]c2ncc(-c3ccsc3)nc2n1Cc1ccccc1 [Compound 15, 1-Benzyl-6-thiophen-3-yl-1,3-dihydroimidazo[4,5-b]pyrazin-2-one]
> 1	COc1cccc(-c2cnc3[nH]c(=O)n(Cc4ccccc4)c3n2)c1 [Compound 17, 1-Benzyl-6-(3-methoxyphenyl)-1,3-dihydroimidazo[4,5-b]pyrazin-2-one]
0.5 to 1	O=C(O)c1cccc(-c2cnc3[nH]c(=O)n(Cc4ccccc4)c3n2)c1 [Compound 18, 3-(3-Benzyl-2-oxo-2,3-dihydro-1H-imidazo[4,5-b]pyrazin-5-yl)benzoic acid]
> 1	COc1cc(OC)cc(-c2cnc3[nH]c(=O)n(Cc4ccccc4)c3n2)c1 [Compound 21, 1-Benzyl-6-(3,5-dimethoxyphenyl)-1,3-dihydro-imidazo[4,5-b]pyrazin-2-one]
> 1	COc1ccc(-c2cnc3[nH]c(=O)n(Cc4ccccc4)c3n2)cc1C=O [Compound 22, 5-(3-Benzyl-2-oxo-2,3-dihydro-1H-imidazo[4,5-b]pyrazin-5-yl)-2-methoxybenzaldehyde]
< 0.5	COc1ccc(-c2cnc3[nH]c(=O)n(Cc4ccccc4)c3n2)cc1C(=O)O [Compound 23, 5-(3-Benzyl-2-oxo-2,3-dihydro-1H-imidazo[4,5-b]pyrazin-5-yl)-2-methoxybenzoic acid]
> 1	COc1ccc(-c2cnc3[nH]c(=O)n(Cc4ccccc4)c3n2)cc1CO [Compound 24, 1-Benzyl-6-(3-hydroxymethyl-4-methoxyphenyl)-1,3-dihydro-imidazo[4,5-b]pyrazin-2-one]
0.5 to 1	O=C(O)c1cc(-c2cnc3[nH]c(=O)n(Cc4ccccc4)c3n2)ccc1O [Compound 25, 5-(3-Benzyl-2-oxo-2,3-dihydro-1H-imidazo[4,5-b]pyrazin-5-yl)-2-hydroxybenzoic acid]
> 1	COc1ccc(-c2cnc3[nH]c(=O)n(Cc4ccccc4)c3n2)cc1C(N)=O [Compound 26, 5-(3-Benzyl-2-oxo-2,3-dihydro-1H-imidazo[4,5-b]pyrazin-5-yl)-2-methoxybenzamide]
